Test results as given in patent US20020115619A1, “Compositions and methods for treatment of cystic fibrosis” (priority 2000, published 2002).
Values belong to the compound of their own block, whether it stands above or below them.

What was measured:
[1] = cited from earlier work
rat αβγENaC = assay: Amiloride-sensitive whole-cell current in Xenopus oocytes injected with αβγENaC cRNAs; type: cell-based
Protocol: (§1) Human WT-CFTR, human ΔF508-CFTR, and mouse α−, β−and γ ENaC cRNAs were prepared using a cRNA synthesis kit (m-MESSAGE mMACHINE, Ambion Inc, Austin, Tex.) according to the manufacturer's protocol. cRNA concentrations were determined spectroscopically. Oocytes obtained from adult female Xenopus laevis (NASCO Fort Atkinson, Wis.) were defolliculated and maintained at 18° C. in modified Barth's saline (88 mM NaCl, 1 mM KCl, 2.4 mM NaHCO3, 15 mM Hepes pH 7.6, 0.3 mM Ca(NO3)2, 0.41 mM CaCl2, 0.82 MM MgSO4, 10 μg/ml sodium penicillin, 10 μg/ml streptomycin sulfate, 100 μg/ml gentamicin sulfate). […]
(§2) Whole-cell current measurements were made 24 to 48 hours after injection using the two-electrode voltage clamp method (GeneClamp 500 amplifier-Axon Instruments, Foster City, Calif.). […] The whole-cell currents were measured by voltage clamping the oocytes in 20 mV steps between −140 mV to +60 mV adjusted for baseline transmembrane potential. Whole cell currents (I) were digitized at 200 Hz during the voltage steps, recorded directly onto a hard disk and analyzed using pClamp 8 software (Axon Instruments, Foster City, Calif.). […]
The difference in whole-cell currents measured in the absence and presence of 10 μM amiloride was used to define the amiloride-sensitive Na^+current that was mediated by ENaC. […] Whole-cell currents were measured at −100 mV. […]

human WT-CFTR = target: T1, human WT-CFTR (Homo sapiens, UniProt P13569); assay: Two-electrode voltage clamp whole-cell current in Xenopus oocytes injected with WT-CFTR cRNA; type: cell-based; settings: FIG. 9
T1 construct: expressed in transfected cells; host or cells: Xenopus laevis oocytes, cRNA injection (10 ng)
Protocol: as §1, §2
(§3) The difference in whole-cell currents measured in the absence and presence of 10 μM amiloride was used to define the amiloride-sensitive Na^+current that was mediated by ENaC. […]

[2] = 16 milligrams per kilogram per day, oral; cited from earlier work
ΔF508-CFTR [3] = target: T2, ΔF508-CFTR (Homo sapiens, UniProt P13569, DEL508-508); assay: Two-electrode voltage clamp whole-cell current in Xenopus oocytes injected with ΔF508-CFTR cRNA; type: cell-based; design: expressed in transfected cells; host or cells: Xenopus laevis oocytes, cRNA injection (10 ng); settings: −100 mV, FIG. 8
Protocol: as §1, §2, §3

G551D = target: T3, G551D (Homo sapiens, UniProt P13569, G551D); settings: G551D patients; standard deviation 1.2 mV; cited from earlier work
T3 construct: host or cells: nasal epithelium of CF patients carrying G551D (endogenous protein)

ΔF508-CFTR [4] = target: T2, ΔF508-CFTR; settings: cited from earlier work

T2 sequence (P13569 with tags, fused parts or gaps DEL508-508): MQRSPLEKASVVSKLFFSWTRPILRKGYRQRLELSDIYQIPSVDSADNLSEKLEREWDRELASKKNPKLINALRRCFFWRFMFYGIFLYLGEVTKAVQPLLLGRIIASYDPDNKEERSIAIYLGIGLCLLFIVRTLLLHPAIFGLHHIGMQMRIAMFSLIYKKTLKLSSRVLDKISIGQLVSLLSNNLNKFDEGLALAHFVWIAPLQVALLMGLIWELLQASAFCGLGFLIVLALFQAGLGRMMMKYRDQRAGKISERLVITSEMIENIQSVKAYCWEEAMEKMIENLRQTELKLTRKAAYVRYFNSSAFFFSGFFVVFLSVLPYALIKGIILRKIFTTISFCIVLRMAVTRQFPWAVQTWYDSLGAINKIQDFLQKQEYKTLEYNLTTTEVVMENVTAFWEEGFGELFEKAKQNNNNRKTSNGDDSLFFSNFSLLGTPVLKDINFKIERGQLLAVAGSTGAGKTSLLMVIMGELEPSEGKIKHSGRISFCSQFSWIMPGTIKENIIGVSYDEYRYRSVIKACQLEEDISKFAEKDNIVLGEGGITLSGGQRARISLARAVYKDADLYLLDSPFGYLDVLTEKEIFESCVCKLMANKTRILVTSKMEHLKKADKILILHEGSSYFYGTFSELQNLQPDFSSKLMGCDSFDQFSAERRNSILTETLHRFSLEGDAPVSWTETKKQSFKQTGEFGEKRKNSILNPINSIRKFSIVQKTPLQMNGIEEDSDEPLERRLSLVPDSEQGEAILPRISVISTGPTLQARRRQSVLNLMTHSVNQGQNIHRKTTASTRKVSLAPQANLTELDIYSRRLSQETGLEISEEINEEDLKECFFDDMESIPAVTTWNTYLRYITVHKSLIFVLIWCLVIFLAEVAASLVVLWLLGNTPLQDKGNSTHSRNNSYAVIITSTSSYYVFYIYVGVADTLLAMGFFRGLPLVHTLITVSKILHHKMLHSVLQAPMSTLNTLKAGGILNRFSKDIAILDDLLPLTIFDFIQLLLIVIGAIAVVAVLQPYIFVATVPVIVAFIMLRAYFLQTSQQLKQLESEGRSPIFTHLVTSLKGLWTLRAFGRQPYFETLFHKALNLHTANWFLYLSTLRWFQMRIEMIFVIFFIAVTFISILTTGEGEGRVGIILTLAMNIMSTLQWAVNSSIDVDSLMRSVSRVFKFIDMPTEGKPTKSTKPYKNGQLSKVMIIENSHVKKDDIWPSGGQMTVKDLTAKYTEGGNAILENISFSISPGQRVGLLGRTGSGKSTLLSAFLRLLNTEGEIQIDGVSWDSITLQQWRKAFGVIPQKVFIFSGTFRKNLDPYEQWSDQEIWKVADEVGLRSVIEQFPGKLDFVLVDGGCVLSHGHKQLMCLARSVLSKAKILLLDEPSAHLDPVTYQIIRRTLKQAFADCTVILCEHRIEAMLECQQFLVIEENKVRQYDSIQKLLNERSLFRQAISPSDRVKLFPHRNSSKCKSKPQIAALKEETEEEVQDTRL
T1 sequence (P13569 whole entry): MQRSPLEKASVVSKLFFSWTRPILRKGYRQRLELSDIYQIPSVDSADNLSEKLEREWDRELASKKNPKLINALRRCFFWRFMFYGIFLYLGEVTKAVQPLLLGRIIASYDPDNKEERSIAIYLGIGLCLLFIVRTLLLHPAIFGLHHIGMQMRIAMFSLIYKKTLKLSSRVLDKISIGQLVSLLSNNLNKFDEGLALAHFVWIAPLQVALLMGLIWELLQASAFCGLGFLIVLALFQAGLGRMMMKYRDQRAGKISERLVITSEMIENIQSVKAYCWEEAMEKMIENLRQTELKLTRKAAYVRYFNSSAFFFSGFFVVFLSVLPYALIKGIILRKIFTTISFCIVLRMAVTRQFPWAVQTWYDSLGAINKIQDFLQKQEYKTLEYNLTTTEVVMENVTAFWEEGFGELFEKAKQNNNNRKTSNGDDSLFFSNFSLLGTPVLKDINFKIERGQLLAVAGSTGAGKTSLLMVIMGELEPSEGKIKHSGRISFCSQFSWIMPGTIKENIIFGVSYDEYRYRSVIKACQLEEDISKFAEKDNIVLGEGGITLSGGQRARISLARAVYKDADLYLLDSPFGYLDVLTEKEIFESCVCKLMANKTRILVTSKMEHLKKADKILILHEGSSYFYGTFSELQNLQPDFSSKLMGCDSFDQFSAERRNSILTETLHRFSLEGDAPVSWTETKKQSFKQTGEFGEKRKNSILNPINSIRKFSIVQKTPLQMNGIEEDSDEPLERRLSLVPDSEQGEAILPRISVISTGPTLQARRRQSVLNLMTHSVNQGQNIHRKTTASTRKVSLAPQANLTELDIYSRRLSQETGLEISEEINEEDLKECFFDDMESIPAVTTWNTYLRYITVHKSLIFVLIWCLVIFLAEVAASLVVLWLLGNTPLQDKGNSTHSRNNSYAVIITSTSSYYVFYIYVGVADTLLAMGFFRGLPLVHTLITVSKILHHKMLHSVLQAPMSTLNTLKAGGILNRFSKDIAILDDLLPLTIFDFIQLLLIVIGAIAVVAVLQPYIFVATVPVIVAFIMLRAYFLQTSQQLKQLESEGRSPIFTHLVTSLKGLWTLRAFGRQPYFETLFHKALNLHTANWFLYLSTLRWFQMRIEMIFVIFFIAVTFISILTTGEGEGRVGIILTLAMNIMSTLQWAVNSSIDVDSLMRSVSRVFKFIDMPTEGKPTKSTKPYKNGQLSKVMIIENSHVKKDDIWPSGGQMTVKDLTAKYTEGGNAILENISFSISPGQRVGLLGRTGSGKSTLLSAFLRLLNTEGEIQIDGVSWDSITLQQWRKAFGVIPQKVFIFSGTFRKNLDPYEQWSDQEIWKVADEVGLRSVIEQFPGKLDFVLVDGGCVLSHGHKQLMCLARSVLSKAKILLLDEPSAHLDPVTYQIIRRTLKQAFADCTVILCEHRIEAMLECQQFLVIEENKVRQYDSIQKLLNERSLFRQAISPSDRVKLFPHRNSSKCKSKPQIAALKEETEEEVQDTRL
T3 sequence (P13569 whole entry G551D): as the sequence (P13569 whole entry) above, with G551D counted along it

SMILES: O=C(O)CCCc1ccccc1 [4PBA, 4-phenylbutyrate]
commonly reported side effects in chronic therapy ([1]; FDA approved use, urea cycle disorders, 20 grams per day oral): mild stomach upset and an occasional bad taste in the mouth
side effects related to 4PBA therapy during trial ([1]; pilot CF trial, 19 grams per day, one week): no significant side effects

SMILES: N=C(N)NC(=O)c1nc(Cl)c(N)nc1N [amiloride]
inhibition of whole-cell current by amiloride (rat αβγENaC; 10 μM amiloride, oocytes injected with αβγENaC): A large fraction of the current can be inhibited

WT-CFTR whole-cell current after forskolin/IBMX plus genistein (human WT-CFTR; 10 μM forskolin/100 μM IBMX/50 μM genistein): 2.57±0.45 μA
fold increase of forskolin/IBMX-stimulated WT-CFTR current by addition of genistein (human WT-CFTR; 50 μM genistein, −100 mV): 2 fold
ΔF508-CFTR-mediated whole-cell current after forskolin/IBMX/genistein (ΔF508-CFTR [3]; 10 μM forskolin/100 μM IBMX/50 μM genistein, ΔF508-CFTR alone): 1.82±0.4 μA
fold increase of forskolin/IBMX-stimulated ΔF508-CFTR-mediated current by addition of genistein (ΔF508-CFTR [3]; 50 μM genistein added to 10 μM forskolin/100 μM IBMX): 5 fold
SMILES: O=c1c(-c2ccc(O)cc2)coc2cc(O)cc(O)c12 [genistein]
effect on amiloride-sensitive current of genistein alone or added before forskolin/IBMX (rat αβγENaC; ENaC alone, unpublished data): decreased
side effects in Phase I clinical trials [2]: no side effects noted
average repolarization of the NPD during genistein perfusion (G551D): 2.4 mV
enhancement of cAMP-dependent activation of ΔF508-CFTR (ΔF508-CFTR [4]): ≤ 20 fold
activation of ΔF508-CFTR by the compound itself (ΔF508-CFTR [4]; without cAMP stimulation): does not activate ΔF508-CFTR by itself
